These results are taken from US20250051403A1, “ANTIMICROBIAL PEPTIDES, VARIANTS AND CHEMICAL ANALOGUES THEREOF AND THEIR USES” (priority 2021, published 2025).

Converted amounts (≈) assume the structure as drawn. Read-outs that look alike come from different tables or passages of the source. Positions of bridges follow the written chain, without caps; N, C: chain ends. Non-standard residues stand in square brackets, D forms with d. Residues, ends and D or L forms follow the SMILES beside them. Abu = CC[C@H](N)C(=O)O

The test system of test [1] is V. alginolyticus (MPV19 IFREMER). Briefly: MIC, broth microdilution. It is filed as cell-based, Vibrio alginolyticus. On the technique in general: In broth dilution the organism is exposed to a series of concentrations in liquid medium.
Another test concerns Pseudomonas sp. Description: MIC, broth microdilution. The note with it: Table III; MHB saline 565 mM NaCl. It is filed as cell-based. Here is the method: (§1) To standardize the bacterial cell suspension for assay of antibacterial activity, some colonies of each strain grown overnight on MHA (Mueller Hinton Agar. ROTH) plates were suspended in MHB (Mueller Hinton Broth. ROTH) or MHB saline (Mueller Hinton Broth containing 565 mM NaCl) and incubated at 37° C. or 30° C. until visible turbid. This log-phase inoculum was diluted 1:100 in the same culture media. Using sterile 96-well microtiter plates (CELLSTAR. Greiner bio-one), serial 2-fold dilutions (40 to 0.78 μM) of each peptide were prepared in cation-adjusted acetic acid 0.02% with 0.4% BSA (Bovin Serum Albumin fraction V. Boehringer) at a volume of 10 μL/well. Each well was inoculated with 100 μL of the standardized bacterial inoculum, corresponding to a final test concentration of about 10^5 CFU/mL. Antimicrobial activities were expressed as the MIC (Minimal Inhibitory Concentration), the lowest concentration of peptide at which 100% inhibition of microbial growth was observed after 24 h of incubation at 37° C. or 30° C. by measuring OD600 in a microtiter plate reader. The minimal bactericidal concentration (MBC) was defined as the peptide concentration where no colony growth was observed.

For test [2], the system named is Escherichia coli (ATCC 8739). Description: MIC, broth microdilution. It is filed as cell-based. The note with it: Table IV.
For the next test, the system named is E. coli (D31 Pasteur). Briefly: MIC, broth microdilution. It is filed as cell-based, Escherichia coli. The note with it: Table IV. Here is the method: as §1
(§2) The same experiments as described in 1) were performed. For the evaluation of antimicrobial activity against some other strains, a resazurin microtiter assay was used as explained hereinafter.

Test [3] concerns Staphylococcus aureus (ATCC 6538P). Briefly: MIC, broth microdilution. It is filed as cell-based. As to conditions: Table IV.
The subject of a further test is S. aureus (Pasteur). Briefly: MIC, broth microdilution. It is filed as cell-based, Staphylococcus aureus. As to conditions: Table IV.
Test [4] concerns S. aureus methicillin resistant USA300 (ATCC BAA-1717). Description: MIC, broth microdilution. It is filed as cell-based, Staphylococcus aureus.
Test [5] concerns Pseudomonas aeruginosa (ATCC 9027). Description: MIC, broth microdilution. It is filed as cell-based. As to conditions: Table IV.
Test [6] concerns P. aeruginosa Fluoroquinolone resistant (CIP 107398). Briefly: MIC, broth microdilution. It is filed as cell-based, Pseudomonas aeruginosa.
In test [7] the test system is Acinetobacter baumannii (CIP 103572). Description: MIC, broth microdilution. It is filed as cell-based. As to conditions: Table IV.
Test [8] has as its system Bacillus subtilis (ATCC 6633). Description: MIC, broth microdilution. It is filed as cell-based. As to conditions: Table IV. How it is done:
as §1, §2

In test [9] the test system is Salmonella enterica (CIP 80.39). Briefly: MIC, broth microdilution. It is filed as cell-based. Here is the method: as §1, §2
In test [10] the test system is Klebsiella pneumoniae carbapenem-resistant (DSMZ 26371). Briefly: MIC, broth microdilution. The note with it: Table IV. It is filed as cell-based.
In test [11] the test system is Enterococcus faecalis Vancomycin-resistant (DSMZ 13591). Briefly: MIC, broth microdilution. It is filed as cell-based. As to conditions: Table IV.
The test system of test [12] is Helicobacter pylori (ATCC 43504). Briefly: MIC, broth microdilution. It is filed as cell-based. The note with it: Table IV.
In test [13] the test system is Burkholderia cepacia (DSM 7288). Briefly: MIC, broth microdilution. It is filed as cell-based. The note with it: Table IV.
For the next test, the system named is Serratia marcescens. Briefly: MIC, broth microdilution. The note with it: Table IV. It is filed as cell-based.
For another test, the system named is Pseudomonas sp biofilm. Description: Biofilm formation assay (crystal violet). It is filed as cell-based. As to conditions: 20 μM peptide, 2 h at 37° C. on 48 h biofilm; untreated culture 0.95. Here is the method: Overnight cultures of V. diabolicus and Pseudomonas sp (37° C., 200 rpm) were diluted to an OD600 of 0.1 in MHB medium and 200 μL aliquots of the suspensions were introduced into the wells of a 96 microtiter plates (Nunc). Plates were then incubated at 37° C. without shaking for 48 h. After removal of the standing culture, the wells were washed with MHB medium and Michelicin, Arenicin and Alvinellacin were added, respectively, at a final concentration of 20 μM in MHB. The treatment was performed during 2 h at 37° C. Wells were then washed three times with distilled water and the remaining attached bacteria were fixed with 99% methanol per well for 20 min at room temperature. Afterward, methanol was removed and plates were air-dried. Biofilms were stained with 300 μL of 1% crystal violet (v/v) for 20 min at room temperature, before the residual stain was removed. After washing, the crystal violet bound to the adherent cells was solubilized with 300 μL of 100% ethanol and absorbance was measured at 595 nm (TECAN, sunrise). Sterile medium served as negative control. It is clear on the view of FIG. 3 that Michelicin has a greater antimicrobial activity on a biofilm of Pseudomonoas sp strains than Alvinellacin. For Pseudomonas sp, OD595 is equal to 0.6 when treated with Michelicin, equal to 0.55 when treated with Arenicin and equal to 0.65 when treated with Alvinellacin. […]

In a further test the test system is V. alginolyticus. Description: Scanning electron microscopy of treated bacteria. As to conditions: FIG. 9. It is filed as cell-based, Vibrio alginolyticus. The text has this:
(§3) The arrows show pore formed through the membrane. For V. diabolicus, despite the results of FIG. 3, is seems that Michelicin has a pore-forming activity on these bacteria.

Another test relates to V. diabolicus. Briefly: Scanning electron microscopy of treated bacteria. It is filed as cell-based, Vibrio diabolicus. The note with it: FIG. 9.
Description: as §3

The test system of test [14] is E. coli carbapenem- resistant (DSMZ 22314). As to conditions: Table IV.
For test [15], the system named is A. baumannii antibiotic resistant (CIP 110431). As to conditions: Table IV.
Test [16] deals with B. subtilis nisin resistant (DSMZ 347).
For test [17], the system named is Mycobacterium tuberculosis mc^26230.
In the next test the test system is M. bovis BCG Pasteur. The note with it: Table IV; REMA, 90% growth inhibition.
Test [18] deals with M. abscessus R (CIP104537^TR). The note with it: Table IV; REMA, 90% growth inhibition.
In another test the test system is Acinetobacter baumannii. It is filed as cell-based. How it is done:
(§4) Biological (antimicrobial) activity of Michelicin (which comprises two disulfide bridges formed between four cysteines) synthetized with (A) or without (B) a stepwise formation of the desired disulfide pattern, was also determined. An analogue of Michelicin which has the same sequence as Michelicin except for the cysteine residues that are replaced by a neutral analogue of cysteine (i.e. Michelicin-OH 2343 (Abu-3-6-11-15)) was synthesized. Abu means 2-aminobutanoic group. This analogue is devoid of disulfide bridges. This analogue of Michelicin is called Michelicin no SS in Table VI.

Test [19] relates to Helicobacter pylori 21031. It is filed as cell-based. How it is done:
as §4

A further test concerns Staphylococcus aureus. It is filed as cell-based. How it is done:
as §4

The subject of test [20] is Clostridium perfringens (ATCC 13124). The note with it: Table VI.

The MIC is the smallest concentration in the dilution series that meets the test's criterion for growth inhibition. A lower MIC goes with a more susceptible organism.

Take `CSCC[C@@H]1NC(=O)[C@@H]2CSSC[C@H](NC(=O)[C@H](CCCNC(=N)N)NC(=O)[C@H]([C@@H](C)O)NC(=O)[C@H](Cc3ccc(O)cc3)NC(=O)[C@@H](NC(=O)CNC(=O)[C@@H](N)CCCNC(=N)N)CSSC[C@@H](C(=O)N[C@H](C(=O)O)[C@@H](C)O)NC(=O)[C@H](C(C)C)NC(=O)[C@H](CCCNC(=N)N)NC1=O)C(=O)N[C@@H](Cc1c[nH]c3ccccc13)C(=O)N[C@@H](CCCCN)C(=O)N[C@@H](C(C)C)C(=O)NCC(=O)N[C@@H](CCCNC(=N)N)C(=O)N[C@@H](CC(N)=O)C(=O)NCC(=O)N[C@@H](CCCNC(=N)N)C(=O)N[C@@H](C(C)C)C(=O)N2` [Alvinellacin] (H-RGCYTRCWKVGRNGRVCMRVCT-OH; disulfide 3-21, 7-17; N-terminus and C-terminus assumed): the minimal inhibitory concentration (MIC) in test [1] (Table III, MHB) is 0.07 to 0.15 µM; in [1] (Table IV) it was 0.07 to 0.15 µM; in test [2] it was 1.25 to 2.5 µM; against E. coli (D31 Pasteur) it was 0.31 to 0.62 µM; in test [3], 2.5 to 5 µM; with S. aureus (Pasteur), 1.25 to 2.5 µM. Moreover, the MIC in [4] (Table IV) fell in the range of 2.5 to 5 µM; in [5], 1.25 to 2.5 µM; in [6] (Table IV), 1.25 to 2.5 µM; in test [7] it was 1.25 to 2.5 µM; in test [8] it was 0.625 to 1.25 µM; in test [9] (Table IV), 0.625 to 1.25 µM. Besides, the MIC in test [10] was 1.25 to 2.5 µM; in [11], 20 to 40 µM; in [12], 1.25 to 2.5 µM; in test [13] it was 10 µM (≈ 26 µg/mL); with Serratia marcescens, more than 50 µM; in the test on Vibrio alginolyticus, 0.07 to 0.15 µM. In addition, the minimal inhibitory concentration (MIC) was in the range of 0.07 to 0.15 µM against Vibrio alginolyticus (24 h); 2.5 to 5 µM against V. diabolicus (HE 800); 0.15 to 0.31 µM in the test on Bacillus megaterium; 0.625 to 1.25 µM in test [14]; 0.625 to 1.25 µM in [15]; 0.625 to 1.25 µM in test [16] (Table IV). Also, the MIC was in the range of 16.0 to 21.5 µM in test [17], 12.0 to 21.4 µM with M. bovis BCG Pasteur and 17.0 to 17.8 µM in test [18]. Moreover, the “MIC with 565 mM NaCl” value was 0.62 to 1.25 µM in test [1] (Table III, MHB saline 565 mM NaCl); 5 to 10 µM with Pseudomonas sp.; 0.07 to 0.15 µM against Vibrio alginolyticus; 2.5 to 5 µM against V. diabolicus (HE 800); 2.5 to 5 µM against Bacillus megaterium. Besides, in the test on Pseudomonas sp biofilm, the “Biofilm OD595 after treatment” value was 0.65. For the same compound, the “Membrane damage seen by scanning electron microscopy” value with V. alginolyticus and in the test on V. diabolicus was “able to damage” in each case.

Take `CC[C@H](NC(=O)[C@H](CCCNC(=N)N)NC(=O)CNC(=O)[C@H](CC(N)=O)NC(=O)[C@H](CCCNC(=N)N)NC(=O)[C@H](CC)NC(=O)[C@@H](NC(=O)[C@H](CCCNC(=N)N)NC(=O)[C@@H](NC(=O)[C@H](CC)NC(=O)[C@@H](NC(=O)[C@@H](N)CCCNC(=N)N)C(C)C)C(C)C)[C@@H](C)CC)C(=O)N[C@@H](Cc1ccc(O)cc1)C(=O)N[C@@H](CCCNC(=N)N)C(=O)N[C@@H](CCCNC(=N)N)C(=O)N[C@@H](CC)C(=O)N[C@@H](Cc1c[nH]c2ccccc12)C(=O)N[C@@H](CC(N)=O)C(=O)N[C@H](C(=O)O)[C@@H](C)O` [Michelicin no SS, Michelicin-OH 2343 (Abu-3-6-11-15)] (H-RV[Abu]VRI[Abu]RNGR[Abu]YRR[Abu]WNT-OH; N-terminus assumed): the MIC in test [4] (USA300) was more than 80 µM; in [6] (CIP 107398), more than 80 µM; in test [9] (Table VI, Salmonella enterica) it was 80 µM (≈ 187 µg/mL); with Acinetobacter baumannii it was 2.5 µM (≈ 5.86 µg/mL); in test [19], 40 µM (≈ 93.7 µg/mL); against Staphylococcus aureus, 80 µM (≈ 187 µg/mL). The MIC is 0.625 µM (≈ 1.46 µg/mL) in the test with Vibrio alginolyticus; more than 80 µM against V. diabolicus (HE 800); 5 µM (≈ 11.7 µg/mL) in test [16] (Table VI, Bacillus subtilis Nisin resistant); more than 80 µM in test [20]; 20 µM (≈ 46.9 µg/mL) in the test on M. smegmatis mc^2155.
